Measurements reported in PMC11049645, “Mechanistic Study of Novel Dipeptidyl Peptidase IV Inhibitory Peptides from Goat’s Milk Based on Peptidomics and In Silico Analysis” (Foods, 2024).
Like-named read-outs stand apart in the source and are kept apart here. One block for each compound: values may come before it. Peptide text beside a SMILES is read from it.

Tests used:
[1] = target: T1, DPP-IV (Homo sapiens, UniProt P27487); test: DPP-IV inhibitory assay (in vitro chemical system, Gly-Pro-pNA); format: biochemical; conditions: Gly-Pro-pNA substrate, pH 8, 37 °C, 60 min, mean ± SD
T1 construct: purchased Sigma-Aldrich
T1 sequence (P27487 whole entry): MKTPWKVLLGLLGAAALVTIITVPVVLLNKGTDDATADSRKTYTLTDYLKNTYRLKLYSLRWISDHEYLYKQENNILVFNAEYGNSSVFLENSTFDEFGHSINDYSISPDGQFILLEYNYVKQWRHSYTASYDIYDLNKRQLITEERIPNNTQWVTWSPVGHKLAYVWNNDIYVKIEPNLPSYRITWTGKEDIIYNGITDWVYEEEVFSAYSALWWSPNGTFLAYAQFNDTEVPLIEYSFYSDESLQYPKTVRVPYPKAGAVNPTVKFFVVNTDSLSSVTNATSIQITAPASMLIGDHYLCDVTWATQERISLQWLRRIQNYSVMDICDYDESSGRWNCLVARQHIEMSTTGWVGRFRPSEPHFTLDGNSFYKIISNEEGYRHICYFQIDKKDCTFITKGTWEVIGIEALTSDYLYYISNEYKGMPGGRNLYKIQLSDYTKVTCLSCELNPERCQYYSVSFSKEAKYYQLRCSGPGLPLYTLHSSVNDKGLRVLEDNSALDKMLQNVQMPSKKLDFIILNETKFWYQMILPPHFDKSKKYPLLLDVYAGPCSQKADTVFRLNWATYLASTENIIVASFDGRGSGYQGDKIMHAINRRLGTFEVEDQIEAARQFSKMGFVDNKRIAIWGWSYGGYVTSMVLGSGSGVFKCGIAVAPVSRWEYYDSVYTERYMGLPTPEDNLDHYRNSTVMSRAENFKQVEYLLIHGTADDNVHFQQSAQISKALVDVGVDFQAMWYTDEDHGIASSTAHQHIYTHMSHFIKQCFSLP
Procedure: The DPP-IV inhibitory activity of peptides was performed as previously reported with slight modifications. Briefly, peptides were diluted using 100 mM Tris-HCL buffer (pH = 8). Then, 25 μL diluted peptides were mixed with 25 μL of 1.6 mM Gly-Pro-pNA in a 96-well microplate and incubated at 37 °C for 10 min. […] The DPP-IV-inhibition (DI) was calculated with the following equation: DI%=1−AS−ASC/ANR−ANC×100% where AS (sample) is the optical density in the presence of peptide, DPP-IV, and Gly-Pro-pNA; ASC (sample control) is the optical density when DPP-IV is replaced with Tris-HCl buffer (100 mM, pH 8.0); ANR (negative reaction) is the optical density in the presence of only DPP-IV solution and Gly-Pro-pNA; and ANC (negative control) is the optical density in the absence of DPP-IV and peptide.

[2] = test system: DPP-IV; conditions: cited from earlier work
[3] = test system: Caco-2 cells; test: Cell viability assay (MTT); format: cell-based; conditions: 0.025~1 mg/mL, 12 h
Procedure: (§1) The Caco-2 cells (Cell Bank of Shanghai Academy of Biological Science, Shanghai, China) were incubated at 37 °C in a 5% CO2 environment in DMEM supplemented with 10% FBS and 1% penicillin–streptomycin liquid. Unless otherwise stated below, the cells were cultivated at a density of 5 × 10^4 cells/mL in the culture dishes (Corning Inc., Corning, NY, USA). The cell culture medium was changed every two days, and the cells from passage numbers of 15–25 were used in this study.
The cell viability was determined following the method described by You et al. with slight modification. Briefly, Caco-2 cells were seeded in 96-well microplates with a density of 1 × 10^4 cells/well and incubated at 37 °C with 5% CO2 for 24 h. […] After 12 h of intervention, 10 μL of MTT (0.05 mg) was added and incubated for another 4 h. Finally, the DMEM medium was replaced with 100 μL of DMSO and the absorbance of the solubilized crystals was detected at 490 nm (Molecular Devices SpectraMax M5, San Jose, CA, USA). The cell viability was calculated by the following equation:Cell viability (%) = (ODtest − ODblank)/(ODcontrol − ODblank) × 100%

[4] = target: T2, DPP-IV activity of Caco-2 cells (Homo sapiens, UniProt P27487); test: In situ cell-based DPP-IV inhibition (Gly-Pro-AMC); conditions: 1 h at 37 °C, Gly-Pro-AMC 50 µM, mean ± SD (n = 3), read-out: In situ DPP-IV inhibitory activity IC50
T2 construct: endogenous in cells; host or cells: Caco-2
T2 sequence (P27487 whole entry): as above
Procedure: as §1
Briefly, 2 × 10^4 Caco-2 cells/well cells were seeded in 96-well microplates and cultivated for 24 h. […] Subsequently, 100 µL of the fluorescent substrate Gly-Pro-AMC (50 µM) was added to each well and incubated for 5 min. IPI was used as a positive control. Then, the florescence was monitored with excitation and emission wavelengths of 380 nm and 500 nm (Molecular Devices SpectraMax M5, San Jose, CA, USA).

[5] = in vitro, identified in the intestinal tract following cow milk ingestion, read-out: DPP-IV inhibition IC50
[6] = peptides with molecular weights greater than 1000 Da, no reference given, read-out: DPP-IV inhibition IC50
[7] = in vitro inhibition test, camel-milk-derived protein hydrolysates
[8] = competitive DPP-IV inhibitory peptides from camel whey protein, read-out: DPP-IV inhibition IC50
[9] = read-out: DPP-IV inhibition IC50

DPP-IV Inhibitory Activity (IC50, μM) [1]: not detectable
Compound: FVY [Peptide P6]

DPP-IV Inhibitory Activity (IC50, μM) [1]: not detectable
Compound: LYL [Peptide P7]

Compound: LPVPQ
IC50 [2, 5]: 43.8 ± 8.8 µM

Compound: N[C@@H](Cc1ccc(O)cc1)C(=O)N1CCC[C@H]1C(=O)N[C@@H](Cc1ccccc1)C(=O)O [Peptide P4, YPF] (H-Tyr-Pro-Phe-OH)
Cell viability [3]: no significant decrease in cell viability

Compound: PACGGFYISGRPG
IC50 [2, 6]: 9.4 µM

IC50 [4]: 155 ± 8.41 µM
IC50 [1]: 214 ± 0.64 µM
Compound: CC(C)C[C@H](NC(=O)[C@@H](N)CC(C)C)C(=O)N[C@@H](CC(C)C)C(=O)N1CCC[C@H]1C(=O)O [Peptide P9, LLLP] (H-LLLP-OH; N-terminus and C-terminus assumed)
Cell viability [3]: no significant decrease in cell viability

Compound: MPVQA
IC50 [2, 7]: 93.3 ± 8 µM

Compound: VPF
IC50 [2, 8]: 55.1 µM

IC50 [1]: 1570 ± 256 µM
Compound: CC(C)[C@H](N)C(=O)N1CCC[C@H]1C(=O)N1CCC[C@H]1C(=O)N[C@@H](Cc1ccccc1)C(=O)O [Peptide P2, VPPF] (H-VPPF-OH)

Compound: YPI
IC50 [2, 8]: 35 µM

IC50 [1]: 2559 ± 5.7 µM
Compound: CC(C)C[C@H](NC(=O)[C@@H]1CCCN1C(=O)[C@@H]1CCCN1C(=O)[C@@H](N)CC(C)C)C(=O)O [Peptide P3, LPPL] (H-LPPL-OH; N-terminus and C-terminus assumed)

DPP-IV Inhibitory Activity (IC50, μM) [1]: not detectable
DPP-IV Inhibitory Activity (IC50, μM) ([1]; listed as LLW): no DPP-IV inhibitory activity
Compound: LLW [Peptide P14]

Compound: VPV
IC50 [2, 8]: 6.6 µM

Compound: IPYWTY
IC50 [2, 9]: 11 µM

IC50 [1]: 1750 ± 29.9 µM
Compound: CC(C)C[C@H](NC(=O)[C@H](C)NC(=O)[C@@H]1CCCN1)C(=O)N[C@@H](Cc1ccccc1)C(=O)O [Peptide P5, PALF] (H-PALF-OH; N-terminus and C-terminus assumed)

Compound: INNQFLPYPY
IC50 [2, 6]: 40.1 µM

Compound: LPVP
IC50 [2, 7]: 87 ± 3.2 µM

Compound: LLAP
DPP-IV inhibitory activity (in words) [2]: high DPP-IV inhibitory activity

DPP-IV Inhibitory Activity (IC50, μM) [1]: not detectable
Compound: LWV [Peptide P12]

Compound: IPYWT
IC50 [2, 9]: 18.3 µM

DPP-IV Inhibitory Activity (IC50, μM) [1]: not detectable
Compound: LVW [Peptide P11]

Compound: IPM
IC50 [2, 5]: 69.5 ± 8.7 µM

Compound: WVL [Peptide P10]
DPP-IV inhibitory activity (in words) ([2]; literature search): previously reported to have DPP-IV inhibitory activity

Compound: FLEP
IC50 ([2]; tri- and tetrapeptides containing Pro at the C-terminus, read-out: DPP-IV inhibition IC50): 65.3 ± 3.5 µM

Compound: IPAVF
IC50 ([2]; identified from bovine β-lactoglobulin, read-out: DPP-IV inhibition IC50): 44.7 µM
